# Literature values, collected in US8435497B2, “Formoterol of and ciclesonide combination” (Takeda GmbH, priority 2003, dated 2013).
# Tests used:
# [1] = not given; remark: listed apart in the source
# [2] = relative to budesonide
smiles,measurement,setting,value
"CC(C)C(=O)OCC(=O)[C@@]12O[C@H](C3CCCCC3)O[C@@H]1C[C@H]1[C@@H]3CCC4=CC(=O)C=C[C@]4(C)[C@H]3[C@@H](O)C[C@@]12C [Ciclesonide, [11β,16α(R)]-16,17-[(Cyclohexylmethylen)bis(oxy)]-11-hydroxy-21-(2-methyl-1-oxopropoxy)pregna-1,4-dien-3,20-dion]",metabolism by liver oxidases,liver oxidases,very high
same,concentration of the drug in the lungs,lungs,high
same,absorption after oral administration,oral administration,only moderately absorbed
same,plasma half-life,plasma,low plasma half-life
same,systemic activity,[1]; in vivo,low systemic activity
same,systemic activity compared with budesonide,[1]; relative to budesonide,three times lower
same,anti-inflammatory activity compared with budesonide,[2],higher
